Reference: PubChem BioAssay AID248 (DTP/NCI, 2004)
Where “and” joins values, the source holds several entries; their conditions need not be identical. Equal entries are not always repeated. Toxic doses and inconclusive results are not listed. No stated cut-off is given here; in the data, active means T/C of 150% or more; inactive means T/C below 125%.

Test system: L1210 leukemia ip in BDF1 mice, survival T/C
Assay: NCI In Vivo Anticancer Drug Screen. Data for tumor model L1210 Leukemia (intraperitoneal) in B6D2F1 (BDF1) mice
Details: endpoint: mean survival time, higher = longer survival
How it was run: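 Ratio derived from survival: compound-dosed mice over vehicle-dosed mice, all bearing a transplantable tumor.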

[1] = dose: 100.0 mg/kg/injection, schedule: Q01DX001 (ip), vehicle: saline
[2] = dose: 200.0 mg/kg/injection, schedule: Q01DX001 (ip), vehicle: saline
[3] = dose: 400.0 mg/kg/injection, schedule: Q01DX001 (ip), vehicle: saline
[4] = dose: 12.5 mg/kg/injection, schedule: Q01DX009 (ip), vehicle: saline
[5] = dose: 25.0 mg/kg/injection, schedule: Q01DX009 (ip), vehicle: saline
[6] = dose: 50.0 mg/kg/injection, schedule: Q01DX009 (ip), vehicle: saline
[7] = dose: 100.0 mg/kg/injection, schedule: Q04DX003 (ip), vehicle: saline
[8] = dose: 50.0 mg/kg/injection, schedule: Q01DX001 (ip), vehicle: carboxymethylcellulose (CMC)
[9] = dose: 100.0 mg/kg/injection, schedule: Q01DX009 (ip), vehicle: saline with Tween-80
[10] = dose: 100.0 mg/kg/injection, schedule: Q04DX003 (ip), vehicle: saline with Tween-80
[11] = dose: 100.0 mg/kg/injection, schedule: Q01DX001 (ip), vehicle: carboxymethylcellulose (CMC)
[12] = dose: 200.0 mg/kg/injection, schedule: Q01DX001 (ip), vehicle: carboxymethylcellulose (CMC)
[13] = dose: 400.0 mg/kg/injection, schedule: Q01DX001 (ip), vehicle: carboxymethylcellulose (CMC)
[14] = dose: 200.0 mg/kg/injection, schedule: Q04DX003 (ip), vehicle: saline with Tween-80
[15] = dose: 400.0 mg/kg/injection, schedule: Q04DX003 (ip), vehicle: saline with Tween-80
[16] = dose: 100.0 mg/kg/injection, schedule: Q01DX001 (ip), vehicle: other
[17] = dose: 200.0 mg/kg/injection, schedule: Q01DX001 (ip), vehicle: other
[18] = dose: 400.0 mg/kg/injection, schedule: Q01DX001 (ip), vehicle: other
[19] = dose: 100.0 mg/kg/injection, schedule: Q01DX009 (ip), vehicle: saline
[20] = dose: 100.0 mg/kg/injection, schedule: Q04DX002 (ip), vehicle: saline
[21] = dose: 200.0 mg/kg/injection, schedule: Q04DX002 (ip), vehicle: saline

Measured: T/C

COc1cc(C)c([N+](=O)[O-])cc1OC
inactive: [1] 106 % of control | [2] 97 % of control | [3] 101 % of control

COCCOC(N)=O
inactive: [1] 105 % of control | [2] 115 % of control | [3] 95 % of control

CC(=O)Nc1ccccc1I
inactive: dose: 100.0 mg/kg/injection, schedule: Q01DX009 (ip), vehicle: Klucel (hydroxypropylcellulose) (HPC) 104 % of control | dose: 200.0 mg/kg/injection, schedule: Q01DX009 (ip), vehicle: Klucel (hydroxypropylcellulose) (HPC) 96 % of control | dose: 400.0 mg/kg/injection, schedule: Q01DX009 (ip), vehicle: Klucel (hydroxypropylcellulose) (HPC) 95 % of control

COc1cc2ccc3c(c2cc1OC)CN(C)CC3
inactive: [4] 91 % of control | [5] 97 % of control | [6] 100 % of control | [7] 103 % of control

S=c1nc[nH]c2c1N=CNN2
inactive: dose: 5.0 mg/kg/injection, schedule: Q01DX001 (ip), vehicle: carboxymethylcellulose (CMC) 115 % of control | dose: 10.0 mg/kg/injection, schedule: Q01DX001 (ip), vehicle: carboxymethylcellulose (CMC) 90 % of control | dose: 20.0 mg/kg/injection, schedule: Q01DX001 (ip), vehicle: carboxymethylcellulose (CMC) 101 % of control | dose: 40.0 mg/kg/injection, schedule: Q01DX001 (ip), vehicle: carboxymethylcellulose (CMC) 96 % of control

O=C(CI)OCC#CCOC(=O)CI
inactive: dose: 12.5 mg/kg/injection, schedule: Q01DX001 (ip), vehicle: carboxymethylcellulose (CMC) 98 % of control | dose: 12.5 mg/kg/injection, schedule: Q01DX009 (ip), vehicle: carboxymethylcellulose (CMC) 90 % of control and 92 % of control | dose: 12.5 mg/kg/injection, schedule: Q04DX002 (ip), vehicle: carboxymethylcellulose (CMC) 104 % of control and 110 % of control | dose: 12.5 mg/kg/injection, schedule: Q04DX003 (ip), vehicle: carboxymethylcellulose (CMC) 95 % of control | dose: 25.0 mg/kg/injection, schedule: Q01DX001 (ip), vehicle: carboxymethylcellulose (CMC) 103 % of control | dose: 25.0 mg/kg/injection, schedule: Q01DX009 (ip), vehicle: carboxymethylcellulose (CMC) 86 % of control | dose: 25.0 mg/kg/injection, schedule: Q04DX002 (ip), vehicle: carboxymethylcellulose (CMC) 98 % of control | dose: 25.0 mg/kg/injection, schedule: Q04DX003 (ip), vehicle: carboxymethylcellulose (CMC) 103 % of control | [8] 92 % of control | dose: 50.0 mg/kg/injection, schedule: Q04DX002 (ip), vehicle: carboxymethylcellulose (CMC) 97 % of control and 103 % of control | dose: 50.0 mg/kg/injection, schedule: Q04DX003 (ip), vehicle: carboxymethylcellulose (CMC) 94 % of control

O=C1NC(=S)S/C1=C/c1ccc2c(c1)OCO2
inactive: dose: 7.5 mg/kg/injection, schedule: Q01DX009 (ip), vehicle: saline with Tween-80 93 % of control | dose: 15.0 mg/kg/injection, schedule: Q01DX009 (ip), vehicle: saline with Tween-80 88 % of control | dose: 30.0 mg/kg/injection, schedule: Q01DX009 (ip), vehicle: saline with Tween-80 89 % of control

CC1(C)Oc2c(ccc(O)c2CN2CCCCC2)C2=C1CCCC2
inactive: [1] 89 % of control

COc1ccc(/C=N/NC(=O)C[n+]2ccccc2)c(OC)c1
inactive: dose: 25.0 mg/kg/injection, schedule: Q01DX009 (ip), vehicle: saline with Tween-80 110 % of control | dose: 50.0 mg/kg/injection, schedule: Q01DX009 (ip), vehicle: saline with Tween-80 101 % of control | [9] 103 % of control | [10] 94 % of control

CC(C)(O)C(O)(c1ccccc1)c1ccccc1
inactive: [1] 103 % of control | [2] 97 % of control | [3] 95 % of control

Nc1nc2[nH]ncc2c(=O)[nH]1
inactive: [8] 104 % of control | [11] 107 % of control | [12] 93 % of control | [13] 96 % of control

CN1CCN(C(c2ccccc2)c2ccc(Cl)cc2)CC1 (stereo not given)
inactive: dose: 6.25 mg/kg/injection, schedule: Q01DX009 (ip), vehicle: saline 102 % of control | [4] 92 % of control | dose: 12.5 mg/kg/injection, schedule: Q04DX003 (ip), vehicle: saline 95 % of control | [5] 94 % of control | dose: 25.0 mg/kg/injection, schedule: Q04DX003 (ip), vehicle: saline 111 % of control | [6] 100 % of control | dose: 50.0 mg/kg/injection, schedule: Q04DX003 (ip), vehicle: saline 90 % of control | [7] 97 % of control

O=C1c2ccccc2-c2cc(Br)c([N+](=O)[O-])cc21
inactive: [8] 93 % of control | [11] 96 % of control | [12] 86 % of control | [13] 88 % of control

O=C(Nc1cccc(C(F)(F)F)c1)c1cc(C(O)C2CCCCN2)c2cccc(C(F)(F)F)c2n1 (stereo not given)
inactive: dose: 100.0 mg/kg/injection, schedule: Q01DX009 (sc), vehicle: olive oil, sesame oil, peanut oil 105 % of control | dose: 100.0 mg/kg/injection, schedule: Q04DX003 (sc), vehicle: olive oil, sesame oil, peanut oil 102 % of control | dose: 200.0 mg/kg/injection, schedule: Q01DX009 (sc), vehicle: olive oil, sesame oil, peanut oil 97 % of control | dose: 200.0 mg/kg/injection, schedule: Q04DX003 (sc), vehicle: olive oil, sesame oil, peanut oil 97 % of control | dose: 400.0 mg/kg/injection, schedule: Q01DX009 (sc), vehicle: olive oil, sesame oil, peanut oil 108 % of control | dose: 400.0 mg/kg/injection, schedule: Q04DX003 (sc), vehicle: olive oil, sesame oil, peanut oil 97 % of control

COc1ccc(/C=N/CCl)cc1
inactive: [10] 110 % of control | [14] 92 % of control | [15] 96 % of control

Clc1ccc(CNc2ncnc3[nH]ncc23)cc1
inactive: [16] 100 % of control | dose: 100.0 mg/kg/injection, schedule: Q04DX003 (ip), vehicle: other 104 % of control | [17] 106 % of control | dose: 200.0 mg/kg/injection, schedule: Q04DX003 (ip), vehicle: other 113 % of control | [18] 108 % of control | dose: 400.0 mg/kg/injection, schedule: Q04DX003 (ip), vehicle: other 103 % of control

CCSC(=O)N1c2ccc(C)cc2C=CC1C#N (stereo not given)
inactive: [9] 93 % of control | [10] 90 % of control | dose: 200.0 mg/kg/injection, schedule: Q01DX009 (ip), vehicle: saline with Tween-80 104 % of control | [14] 89 % of control | [15] 95 % of control

CCS(=O)(=O)c1ccc(NC(=O)OC2CCCCCCC2)cc1
inactive: [16] 93 % of control | [17] 93 % of control | [18] 93 % of control

CCCNC(Cc1ccccc1)c1ccco1 (stereo not given)
inactive: [6] 104 % of control | [19] 110 % of control | [20] 97 % of control | [21] 93 % of control

COC(=O)CC(c1ccccc1)N1CCCC1 (stereo not given)
inactive: [1] 98 % of control | [2] 104 % of control | [3] 108 % of control

c1ccc([Si](c2ccccc2)(c2ccccc2)c2ccc3ccccc3c2)cc1
inactive: dose: 25.6 mg/kg/injection, schedule: Q04DX002 (ip), vehicle: saline with Tween-80 87 % of control | dose: 64.0 mg/kg/injection, schedule: Q04DX002 (ip), vehicle: saline with Tween-80 90 % of control | [10] 90 % of control | dose: 160.0 mg/kg/injection, schedule: Q04DX002 (ip), vehicle: saline with Tween-80 90 % of control | [14] 88 % of control | dose: 400.0 mg/kg/injection, schedule: Q04DX002 (ip), vehicle: saline with Tween-80 90 % of control | [15] 87 % of control

NCCSC1CCCCC1
inactive: [20] 110 % of control | [21] 94 % of control

Cc1cccc(NC(N)=O)c1
inactive: [6] 96 % of control | [19] 97 % of control | [7] 95 % of control | dose: 200.0 mg/kg/injection, schedule: Q01DX009 (ip), vehicle: saline 94 % of control | dose: 200.0 mg/kg/injection, schedule: Q04DX003 (ip), vehicle: saline 97 % of control | dose: 400.0 mg/kg/injection, schedule: Q04DX003 (ip), vehicle: saline 94 % of control
